Our source for the IC50 values is US11306087B2, “Inhibitors of KRAS G12C and methods of using the same” (Amgen Inc., priority 2017, dated 2022).

A word on the IC50: it is the point on the concentration scale where inhibition reaches its midpoint.

The target in test [1] is GDP-bound KRAS protein (aa 1-169), containing both G12C and C118A amino acid substitutions (Homo sapiens (Human), UniProt P01116, C118A/G12C). As to the kind of experiment: Coupled Nucleotide Exchange Assay. The class given is biochemical. As to conditions: 5 min compound pre-incubation; inhibition of SOS-mediated nucleotide exchange; AlphaScreen. Here is the method: For compounds in Table 2, the following assay conditions were employed: Coupled Nucleotide Exchange Assay: Purified GDP-bound KRAS protein (aa 1-169), containing both G12C and C118A amino acid substitutions and an N-terminal His-tag, was pre-incubated with a compound dose-response titration for 5 min in assay buffer (25 mM HEPES pH 7.4, 10 mM MgCl2, and 0.01% Triton X-100). Following compound pre-incubation, purified SOS protein (aa 564-1049) and GTP (Roche 10106399001) were added to the assay wells and incubated for an additional 30 min. To determine the extent of inhibition of SOS-mediated nucleotide exchange, purified GST-tagged cRAF (aa 1-149), nickel chelate AlphaLISA acceptor beads (PerkinElmer AL108R), and AlphaScreen glutathione donor beads (PerkinElmer 6765302) were added to the assay wells and incubated for 5 minutes. The assay plates were then read on a PerkinElmer EnVision Multilabel Reader, using AlphaScreen® technology, and data were analyzed using a 4-parameter logistic model to calculate IC50 values.
Chain of GDP-bound KRAS protein (aa 1-169), containing both G12C and C118A amino acid substitutions (P01116 other isoform, or with tags, fused parts or gaps G12C/C118A): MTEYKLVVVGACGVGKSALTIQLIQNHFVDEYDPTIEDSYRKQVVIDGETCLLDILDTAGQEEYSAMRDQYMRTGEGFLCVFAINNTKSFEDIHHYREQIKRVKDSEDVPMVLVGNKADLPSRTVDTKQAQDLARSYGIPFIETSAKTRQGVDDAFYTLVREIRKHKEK
(Bead proximity is the source of the signal in Alpha formats.)

Test [2] has as its system Phosphorylation of ERK1/2 in MIA PaCa-2 cells. The experiment in a line: Phospho-ERK1/2 MSD Assay. The following applies: Homo sapiens, 2 hours compound treatment, 10 ng/mL EGF for 10 min, read-out: p-ERK IC50 (MIA PaCa-2). The class given is cell-based. On the procedure:
Phospho-ERK1/2 MSD Assay: MIA PaCa-2 (ATCC® CRL-1420™) and A549 (ATCC® CCL-185™) cells were cultured in RPMI 1640 Medium (ThermoFisher Scientific 11875093) containing 10% fetal bovine serum (ThermoFisher Scientific 16000044) and 1× penicillin-streptomycin-glutamine (ThermoFisher Scientific 10378016). Sixteen hours prior to compound treatment, MIA PaCa-2 or A549 cells were seeded in 96-well cell culture plates at a density of 25,000 cells/well and incubated at 37° C., 5% CO2. A compound dose-response titration was diluted in growth media, added to appropriate wells of a cell culture plate, and then incubated at 37° C., 5% CO2 for 2 hours. Following compound treatment, cells were stimulated with 10 ng/mL EGF (Roche 11376454001) for 10 min, washed with ice-cold Dulbecco's phosphate-buffered saline, no Ca^2+ or Mg^2+ (ThermoFisher Scientific 14190144), and then lysed in RIPA buffer (50 mM Tris-HCl pH 7.5, 1% Igepal, 0.5% sodium deoxycholate, 150 mM NaCl, and 0.5% sodium dodecyl sulfate) containing protease inhibitors (Roche 4693132001) and phosphatase inhibitors (Roche 4906837001). Phosphorylation of ERK1/2 in compound-treated lysates was assayed using Phospho-ERK1/2 Whole Cell Lysate kits (Meso Scale Discovery K151DWD) according to the manufacturer's protocol. Assay plates were read on a Meso Scale Discovery Sector Imager 6000, and data were analyzed using a 4-parameter logistic model to calculate IC50 values.

For `C=CC(=O)N1[C@H](C)CN(c2nc(=O)n(-c3c(C)ccnc3C(C)C)c3nc(-c4c(O)cccc4F)c(Cl)cc23)C[C@@H]1C` (atropisomer, axis not shown; (M)) [Example 14, (M)-4-(4-Acryloyl-cis-3,5-dimethylpiperazin-1-yl)-6-chloro-7-(2-fluoro-6-hydroxyphenyl)-1-(2-isopropyl-4-methylpyridin-3-yl)pyrido[2,3-d]pyrimidin-2(1H)-one], the half-maximal inhibitory concentration (IC50) in test [1] was 0.016 µM; in test [2] it was 0.035 µM.
The corresponding values for `C=CC(=O)N1[C@H](C)CN(c2nc(=O)n(-c3c(C)ccnc3C(C)C)c3nc(-c4c(N)cccc4F)c(F)cc23)C[C@@H]1C` (atropisomer, axis not shown; (M)) [Example 18, (M)-4-(4-Acryloyl-cis-3,5-dimethylpiperazin-1-yl)-7-(2-amino-6-fluorophenyl)-6-fluoro-1-(2-isopropyl-4-methylpyridin-3-yl)pyrido[2,3-d]pyrimidin-2(1H)-one] are 0.069 µM and 0.075 µM.
In the case of `C=CC(=O)N1[C@H](C)CN(c2nc(=O)n(-c3c(C)ccnc3C(C)C)c3nc(-c4c(N)cccc4F)c(Cl)cc23)C[C@@H]1C` (atropisomer, axis not shown; (M)) [Example 15, (M)-4-(4-Acryloyl-cis-3,5-dimethylpiperazin-1-yl)-7-(2-amino-6-fluorophenyl)-6-chloro-1-(2-isopropyl-4-methylpyridin-3-yl)pyrido[2,3-d]pyrimidin-2(1H)-one], the IC50 in test [2] came to 0.015 µM.
On to `C=CC(=O)N1C[C@H](C)N(c2nc(=O)n(-c3c(C(C)C)ncnc3C(C)C)c3nc(-c4c(N)cccc4F)c(F)cc23)C[C@H]1C` [Example 12, 4-((2S,5R)-4-Acryloyl-2,5-dimethylpiperazin-1-yl)-7-(2-amino-6-fluorophenyl)-1-(4,6-diisopropylpyrimidin-5-yl)-6-fluoropyrido[2,3-d]pyrimidin-2(1H)-one], for which the IC50 in test [1] came out at 0.214 µM; in test [2], 0.088 µM.
For the compound `C=CC(=O)N1[C@H](C)CN(c2nc(=O)n(-c3c(C(C)C)ncnc3C(C)C)c3nc(-c4ccccc4F)c(F)cc23)C[C@@H]1C` [Example 22, 4-(4-Acryloyl-cis-3,5-dimethylpiperazin-1-yl)-1-(4,6-diisopropylpyrimidin-5-yl)-6-fluoro-7-(2-fluorophenyl)pyrido[2,3-d]pyrimidin-2(1H)-one], the 50% inhibitory concentration (IC50) in test [1] amounted to 0.56 µM.
With `C=CC(=O)N1C[C@H](C)N(c2nc(=O)n(-c3c(C)ccnc3C(C)C)c3nc(-c4c(N)cccc4F)c(F)cc23)C[C@H]1C` [Example 6, 4-((2S,5R,M)-4-Acryloyl-2,5-dimethylpiperazin-1-yl)-7-(2-amino-6-fluorophenyl)-6-fluoro-1-(2-isopropyl-4-methylpyridin-3-yl)pyrido[2,3-d]pyrimidin-2(1H)-one], the IC50 in test [1] stood at 0.038 µM; in test [2], 0.026 µM.
In the case of `C=CC(=O)N1C[C@H](C)N(c2nc(=O)n(-c3c(C)ccnc3C(C)C)c3nc(-c4c(N)cccc4F)c(Cl)cc23)C[C@H]1C` [Example 3, 4-((2S,5R,M)-4-Acryloyl-2,5-dimethylpiperazin-1-yl)-7-(2-amino-6-fluorophenyl)-6-chloro-1-(2-isopropyl-4-methylpyridin-3-yl)pyrido[2,3-d]pyrimidin-2(1H)-one], the results for the IC50 in test [1] and in test [2] were 0.013 µM and 0.009 µM, respectively.
In turn, `C=CC(=O)N1[C@H](C)CN(c2nc(=O)n(-c3c(C)ccnc3C(C)C)c3nc(-c4ccccc4F)c(F)cc23)C[C@@H]1C` (atropisomer, axis not shown; (M)) [Example 16, (M)-4-(4-Acryloyl-cis-3,5-dimethylpiperazin-1-yl)-6-fluoro-7-(2-fluorophenyl)-1-(2-isopropyl-4-methylpyridin-3-yl)pyrido[2,3-d]pyrimidin-2(1H)-one] returned a half-inhibitory concentration (IC50) in test [1] of 0.512 µM.
With `C=CC(=O)N1[C@H](C)CN(c2nc(=O)n(-c3c(C(C)C)ncnc3C(C)C)c3nc(-c4c(N)cccc4F)c(Cl)cc23)C[C@@H]1C` [Example 21, 4-(4-Acryloyl-cis-3,5-dimethylpiperazin-1-yl)-7-(2-amino-6-fluorophenyl)-6-chloro-1-(4,6-diisopropylpyrimidin-5-yl)pyrido[2,3-d]pyrimidin-2(1H)-one], the IC50 in test [1] came to 0.092 µM; in test [2], 0.036 µM.
Take `C=CC(=O)N1C[C@H](C)N(c2nc(=O)n(-c3c(C(C)C)ncnc3C(C)C)c3nc(-c4c(O)cccc4F)c(Cl)cc23)C[C@H]1C` [Example 8, 4-((2S,5R)-4-Acryloyl-2,5-dimethylpiperazin-1-yl)-6-chloro-1-(4,6-diisopropylpyrimidin-5-yl)-7-(2-fluoro-6-hydroxyphenyl)pyrido[2,3-d]pyrimidin-2(1H)-one]: the half-maximal inhibitory concentration (IC50) amounted to 0.03 µM in test [1] and 0.015 µM in test [2].
In the same order, the values of `C=CC(=O)N1C[C@H](C)N(c2nc(=O)n(-c3c(C(C)C)ncnc3C(C)C)c3nc(-c4ccccc4F)c(Cl)cc23)C[C@H]1C` [Example 7, 4-((2S,5R)-4-Acryloyl-2,5-dimethylpiperazin-1-yl)-6-chloro-1-(4,6-diisopropylpyrimidin-5-yl)-7-(2-fluorophenyl)pyrido[2,3-d]pyrimidin-2(1H)-one] are 0.049 µM and 0.026 µM.
The corresponding values for `C=CC(=O)N1C[C@H](C)N(c2nc(=O)n(-c3c(C)ccnc3C(C)C)c3nc(-c4ccccc4F)c(Cl)cc23)C[C@H]1C` [Example 1, 4-((2S,5R,M)-4-Acryloyl-2,5-dimethylpiperazin-1-yl)-6-chloro-7-(2-fluorophenyl)-1-(2-isopropyl-4-methylpyridin-3-yl)pyrido[2,3-d]pyrimidin-2(1H)-one] are 0.04 µM and 0.026 µM.
Turning to `C=CC(=O)N1C[C@H](C)N(c2nc(=O)n(-c3c(C(C)C)ncnc3C(C)C)c3nc(-c4c(O)cccc4F)c(F)cc23)C[C@H]1C` [Example 11, 4-((2S,5R)-4-Acryloyl-2,5-dimethylpiperazin-1-yl)-1-(4,6-diisopropylpyrimidin-5-yl)-6-fluoro-7-(2-fluoro-6-hydroxyphenyl)pyrido[2,3-d]pyrimidin-2(1H)-one], the concentration for half-maximal inhibition (IC50) in test [1] came out at 0.136 µM; in test [2], 0.103 µM.
The corresponding values for `C=CC(=O)N1[C@H](C)CN(c2nc(=O)n(-c3c(C(C)C)ncnc3C(C)C)c3nc(-c4c(O)cccc4F)c(F)cc23)C[C@@H]1C` [Example 23, 4-(4-Acryloyl-cis-3,5-dimethylpiperazin-1-yl)-1-(4,6-diisopropylpyrimidin-5-yl)-6-fluoro-7-(2-fluoro-6-hydroxyphenyl)pyrido[2,3-d]pyrimidin-2(1H)-one] are 0.173 µM and 0.132 µM.
In the same order, the values of `C=CC(=O)N1[C@H](C)CN(c2nc(=O)n(-c3c(C)ccnc3C(C)C)c3nc(-c4c(O)cccc4F)c(F)cc23)C[C@@H]1C` (atropisomer, axis not shown; (M)) [Example 17, (M)-4-(4-Acryloyl-cis-3,5-dimethylpiperazin-1-yl)-6-fluoro-7-(2-fluoro-6-hydroxyphenyl)-1-(2-isopropyl-4-methylpyridin-3-yl)pyrido[2,3-d]pyrimidin-2(1H)-one] are 0.117 µM and 0.105 µM.
Turning to `C=CC(=O)N1C[C@H](C)N(c2nc(=O)n(-c3c(C)ccnc3C(C)C)c3nc(-c4c(O)cccc4F)c(F)cc23)C[C@H]1C` [Example 5, 4-((2S,5R,M)-4-Acryloyl-2,5-dimethylpiperazin-1-yl)-6-fluoro-7-(2-fluoro-6-hydroxyphenyl)-1-(2-isopropyl-4-methylpyridin-3-yl)pyrido[2,3-d]pyrimidin-2(1H)-one], the IC50 in test [1] came to 0.079 µM; in test [2], 0.046 µM.
With `C=CC(=O)N1[C@H](C)CN(c2nc(=O)n(-c3c(C(C)C)ncnc3C(C)C)c3nc(-c4c(N)cccc4F)c(F)cc23)C[C@@H]1C` [Example 24, 4-(4-Acryloyl-cis-3,5-dimethylpiperazin-1-yl)-7-(2-amino-6-fluorophenyl)-1-(4,6-diisopropylpyrimidin-5-yl)-6-fluoropyrido[2,3-d]pyrimidin-2(1H)-one], in test [1], it took 0.396 µM to reach half-maximal inhibition (IC50).
